Measurements taken from ChEMBL document CHEMBL1201862, “PubChem BioAssay data set” (2004).
Where “and” joins values, the source holds several entries; their conditions need not be identical. Equal entries are not always repeated.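 Five compound concentrations were applied to cells in 96-well plates for 48 hours; endpoints were derived by simple linear interpolation of the resulting dose-response curve. Here, GI50 denotes the concentration required for 50% inhibition of growth.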 Calls of active or inactive are those of the source. Rule as the data show it: active = GI50 up to about 1.1 µM and inactive = higher.

What was measured:
Assay in all cases: inhibition of tumour cell growth, NCI panel, 48 h
[1] = test system: K562
[2] = test system: UACC-62
[3] = test system: OVCAR-4
[4] = test system: SR
[5] = test system: CAKI-1
[6] = test system: HCT-116
[7] = test system: NCI-H226
[8] = test system: HL-60
[9] = test system: HOP-92
[10] = test system: MDA-N
[11] = test system: U-251
[12] = test system: M14
[13] = test system: SN12C
[14] = test system: SK-MEL-5
[15] = test system: CCRF-CEM
[16] = test system: SF-295
[17] = test system: RXF 393
[18] = test system: MOLT-4
[19] = test system: ACHN
[20] = test system: BT-549

Measured: GI50

CC(=O)CC(OC(C)=O)C1=CCC2C(CC1C)OC(=O)C2C (stereo not given)
inactive: [1] > 100 µM | [2] > 100 µM | [3] > 100 µM | [4] 78.9 µM | [5] > 100 µM | [6] > 100 µM | [7] > 100 µM | [8] 40.6 µM | [9] > 100 µM | [10] > 100 µM | [11] > 100 µM | [12] > 100 µM | [13] > 100 µM | [14] > 100 µM | [15] 64.9 µM | [16] > 100 µM | [17] > 100 µM | [18] > 100 µM | [19] > 100 µM | [20] 75 µM

CC(=O)OCC1OC(n2c3c(c(-c4ccc(Cl)cc4)c(C#N)c2=S)C(=O)CC(C)(C)C3)C(OC(C)=O)C(OC(C)=O)C1OC(C)=O (stereo not given)
inactive: [1] 3.23 µM | [2] 7.62 µM | [3] 17.8 µM | [4] 4.12 µM | [5] 11.4 µM | [6] 19.1 µM | [7] 27.5 µM | [8] 5.33 µM | [9] 18.5 µM | [10] 11.5 µM | [11] 19.1 µM | [12] 27.5 µM | [13] 16 µM | [14] 11.7 µM | [15] 3.95 µM | [16] 32.6 µM | [17] 7.48 µM | [18] 4.45 µM | [19] 28.5 µM | [20] 3.14 µM

CC1OC(OC2C(OC(=O)[C@]34CCC(C)(C)C[C@H]3C3=CC[C@@H]5[C@@]6(C)CC[C@H](OC7OC(C(=O)O)C(O)C(O)C7O)C(C)(C)[C@@H]6CC[C@@]5(C)[C@]3(C)C[C@H]4O)OCC(O)C2O)C(O)C(O)C1OC1OCC(O)C(O)C1O (stereo not given in full)
inactive: [1] 16.4 µM and 14.6 µM | [2] 18.5 µM and 16 µM | [3] 17.8 µM | [4] 7.55 µM and 6.01 µM | [5] 12.7 µM and 7.74 µM | [6] 14.1 µM and 9.89 µM | [7] 4.57 µM and 7.19 µM | [8] 8.93 µM | [9] 13.8 µM and 11.2 µM | [10] 10.6 µM and 13.8 µM | [11] 10.4 µM and 15.3 µM | [12] 13.7 µM and 8.59 µM | [13] 2.38 µM and 4.59 µM | [14] 16.8 µM and 18.9 µM | [15] 17.5 µM and 19.9 µM | [16] 10.1 µM and 15.5 µM | [17] 15.7 µM and 18.5 µM | [18] 16 µM and 27 µM | [19] 9.35 µM | [20] 12.2 µM and 13.5 µM

COc1cc2c(cc1OC)C(=O)N(c1ccc(OCCN3CCCC3)cc1)C2
inactive: [1] > 100 µM | [2] > 100 µM | [3] > 100 µM | [4] > 100 µM | [5] > 100 µM | [6] > 100 µM | [7] > 100 µM | [8] > 100 µM | [9] > 100 µM | [10] > 100 µM | [11] > 100 µM | [12] > 100 µM | [13] > 100 µM | [14] > 100 µM | [15] > 100 µM | [16] > 100 µM | [17] > 100 µM | [18] > 100 µM | [19] > 100 µM | [20] > 100 µM

NC1=Nc2ccccc2Sc2cccc(F)c21
inactive: [1] 37.2 µM | [2] 60.3 µM | [3] 58.3 µM | [4] 35.1 µM | [5] > 100 µM | [6] 29.1 µM | [7] 66.5 µM | [8] 24 µM | [9] > 100 µM | [10] 46.1 µM | [11] 85.9 µM | [12] 50.9 µM | [13] > 100 µM | [14] 38 µM | [15] 25.2 µM | [16] 40.4 µM | [17] 24.9 µM | [18] 37.8 µM | [19] > 100 µM | [20] 95.3 µM

CC(C)(C)C1CC[C@H](O)[C@H]([C@H](O)CC2CC(=O)N(c3ccccc3)C(=O)C2)C1 (stereo not given in full)
inactive: [1] > 100 µM | [2] 31.5 µM | [3] > 100 µM | [4] > 100 µM | [5] > 100 µM | [6] > 100 µM | [7] > 100 µM | [8] > 100 µM | [9] 36.1 µM | [10] > 100 µM | [11] > 100 µM | [12] > 100 µM | [13] > 100 µM | [14] > 100 µM | [15] > 100 µM | [16] 63.7 µM | [17] > 100 µM | [18] 99.3 µM | [19] > 100 µM | [20] > 100 µM

O=C1CCc2ccc(O)c(c2)Oc2ccc(cc2)C(Sc2ccccc2)CCO1 (stereo not given)
inactive: [1] 15.7 µM | [2] 15.1 µM | [3] 12.2 µM | [4] 13.1 µM | [5] 14.1 µM | [6] 16.2 µM | [7] 15 µM | [8] 17.7 µM | [9] 10 µM | [10] 16.2 µM | [11] 16 µM | [12] 15.1 µM | [13] 15.8 µM | [14] 12.1 µM | [15] 10.8 µM | [16] 17.4 µM | [17] 17.8 µM | [18] 22.1 µM | [19] 15.1 µM | [20] 14.4 µM
